Test results from US20240360178A1, “MACROCYCLIC IMMUNOMODULATORS” (Bristol-Myers Squibb Company, priority 2021, published 2024).
Positions of bridges follow the written chain, without caps; N, C: chain ends. Non-standard residues stand in square brackets, D forms with d. Residues, ends and D or L forms follow the SMILES beside them. ξ: configuration not given here. *: point of attachment. Phe(4-COOH) = N[C@@H](Cc1ccc(C(=O)O)cc1)C(=O)O; Bip = N[C@@H](Cc1ccc(-c2ccccc2)cc1)C(=O)O; Phe(3-CN) = N#Cc1cccc(C[C@H](N)C(=O)O)c1; Phe(3-Me) = Cc1cccc(C[C@H](N)C(=O)O)c1; NMeY = CN[C@@H](Cc1ccc(O)cc1)C(=O)O; Val(3-OH) = CC(C)(O)[C@H](N)C(=O)O; NMeF = CN[C@@H](Cc1ccccc1)C(=O)O; 3Pal = N[C@@H](Cc1cccnc1)C(=O)O; 4Pal = N[C@@H](Cc1ccncc1)C(=O)O; Cha = N[C@@H](CC1CCCCC1)C(=O)O; Cit = NC(=O)NCCC[C@H](N)C(=O)O; Thr(3ξ) = CC(O)[C@H](N)C(=O)O; Carboxymethyl = O=C(O)C*; NMeA = CN[C@@H](C)C(=O)O; Nle = CCCC[C@H](N)C(=O)O; Orn = NCCC[C@H](N)C(=O)O; Dab = NCC[C@H](N)C(=O)O; Dap = NC[C@H](N)C(=O)O; ξV = CC(C)C(N)C(=O)O; Sar = CNCC(=O)O

Target: T1, human PD-1 (Jurkat-PD-1 cells) / PE-labeled human PD-L1-Ig (Homo sapiens, UniProt Q15116)
T1 construct: expressed in transfected cells; host or cells: Jurkat cell line over-expressing human PD-1
Test: Jurkat-PD-1 Cell Binding High-Content Screening Assay (CBA); Jurkat hPD1-PDL1 assay
Settings: Jurkat cell line over-expressing human PD-1; PE-labeled PD-L1-Ig 20 nM final; compound incubated 2 hours at 37° C.; read-out: Jurkat HPD1-PDL1 IC50
Method in brief: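 Binding of phycoerythrin-conjugated PD-L1-Ig (20 nM final) to PD-1-overexpressing Jurkat cells was read by high-content imaging. Cells in DMEM/10% FCS were exposed to compound for 2 hours at 37° C before labeled ligand was added.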

T1 sequence (Q15116 25-288): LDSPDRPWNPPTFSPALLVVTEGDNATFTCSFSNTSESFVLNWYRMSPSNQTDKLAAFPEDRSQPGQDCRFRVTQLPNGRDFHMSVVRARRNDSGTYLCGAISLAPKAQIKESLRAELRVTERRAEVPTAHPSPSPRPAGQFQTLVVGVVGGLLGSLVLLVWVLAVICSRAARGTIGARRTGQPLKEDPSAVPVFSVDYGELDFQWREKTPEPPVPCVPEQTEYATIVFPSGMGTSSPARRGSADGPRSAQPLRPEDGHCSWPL

CC(C)C[C@@H]1NC(=O)[C@H](CCCNC(=N)N)NC(=O)[C@H](Cc2ccccc2)N(C)C(=O)[C@H](C)N(C)C(=O)[C@H](CCCNC(=N)N)NC(=O)[C@H](Cc2ccc(-c3ccccc3)cc2)NC(=O)[C@H](C(C)C)NC(=O)[C@H](Cc2c[nH]c3ccccc23)NC(=O)[C@H](CC(=O)O)NC(=O)[C@H](Cc2ccc(C(=O)O)cc2)NC(=O)[C@H](Cc2cnc[nH]2)NC(=O)CSC[C@@H](C(=O)NCC(N)=O)NC(=O)[C@H](CO)NC(=O)[C@H](C(C)C)NC1=O [Example 1291] ({CH2CO}-H[Phe(4-COOH)]DWV[Bip]R[NMeA][NMeF]RLVSCG-NH2; thioether N-14)
IC50: 90 nM

CC(C)C1NC(=O)[C@H](Cc2c[nH]c3ccccc23)NC(=O)[C@H](CC(=O)O)NC(=O)[C@H](Cc2ccncc2)NC(=O)[C@H](CN)NC(=O)CSC[C@@H](C(=O)N[C@@H](C)C(N)=O)NC(=O)[C@H]([C@@H](C)O)NC(=O)[C@H](C(C)C)NC(=O)[C@H](CC2CCCCC2)NC(=O)[C@H](CCN)NC(=O)[C@H](Cc2ccc(O)cc2)N(C)C(=O)[C@H](CCCN)NC(=O)[C@H](CCC(=O)O)NC(=O)[C@H](Cc2ccc(-c3ccccc3)cc2)NC1=O (stereo partly drawn) [Example 1451] ({CH2CO}-[Dap][4Pal]DW[ξV][Bip]E[Orn][NMeY][Dab][Cha]VTCA-NH2; thioether N-14)
IC50: 520 nM

CC(C)C[C@@H]1NC(=O)[C@H](Cc2c[nH]c3ccccc23)NC(=O)[C@H](CC(=O)O)NC(=O)[C@H](Cc2ccc(O)cc2)NC(=O)[C@H](Cc2ccccc2)NC(=O)CSC[C@@H](C(=O)NCC(N)=O)NC(=O)[C@H](CO)NC(=O)[C@H](C(C)C)NC(=O)[C@H](CC(C)C)NC(=O)[C@H](CC(N)=O)NC(=O)CN(C)C(=O)[C@H](C)N(C)C(=O)[C@H](C(C)C)NC(=O)[C@H](Cc2ccc(-c3ccccc3)cc2)NC1=O [Example 1001] ({CH2CO}-FYDWL[Bip]V[NMeA][Sar]NLVSCG-NH2; thioether N-14)
IC50: 920 nM

CC(C)C[C@@H]1NC(=O)[C@H](CCCNC(=N)N)NC(=O)[C@H](Cc2ccccc2)N(C)C(=O)[C@H](C)N(C)C(=O)[C@H](CCCNC(=N)N)NC(=O)[C@H](Cc2ccc(-c3ccccc3)cc2)NC(=O)[C@H](C(C)C)NC(=O)[C@H](Cc2c[nH]c3ccccc23)NC(=O)[C@H](CC(=O)O)NC(=O)[C@H](Cc2ccc(O)cc2)NC(=O)[C@H](CCC(N)=O)NC(=O)CSC[C@@H](C(=O)N[C@@H](C)C(N)=O)NC(=O)[C@H](CO)NC(=O)[C@H](C(C)C)NC1=O [Example 1296] ({CH2CO}-QYDWV[Bip]R[NMeA][NMeF]RLVSCA-NH2; thioether N-14)
IC50: 140 nM

CC(C)C[C@@H]1NC(=O)[C@H](CCCNC(=N)N)NC(=O)[C@H](Cc2ccccc2)N(C)C(=O)[C@H](C)N(C)C(=O)[C@H](CCCNC(=N)N)NC(=O)[C@H](Cc2ccc(-c3ccccc3)cc2)NC(=O)[C@H](C(C)C)NC(=O)[C@H](Cc2c[nH]c3ccccc23)NC(=O)[C@H](CC(=O)O)NC(=O)[C@H](Cc2ccc(O)cc2)NC(=O)[C@H](Cc2ccccc2)NC(=O)CSC[C@@H](C(=O)NCC(N)=O)NC(=O)[C@H](CCN)NC(=O)[C@H](C(C)C)NC1=O [Example 1332] ({CH2CO}-FYDWV[Bip]R[NMeA][NMeF]RLV[Dab]CG-NH2; thioether N-14)
IC50: 790 nM

Cc1cccc(C[C@@H]2NC(=O)[C@H](CC(=O)O)NC(=O)[C@H](Cc3ccc(OCC(=O)O)cc3)NC(=O)[C@H](Cc3ccc(OCC(=O)O)cc3)NC(=O)CSC[C@@H](C(=O)N[C@@H](C)C(N)=O)NC(=O)[C@H](CO)NC(=O)[C@H](C(C)C)NC(=O)[C@H](CC(C)C)NC(=O)[C@H](CC(N)=O)NC(=O)[C@H]3CCCN3C(=O)[C@H](C)N(C)C(=O)[C@H](C(C)C)NC(=O)[C@H](Cc3ccc(-c4ccccc4)cc3)NC(=O)[C@H](CC(C)C)NC2=O)c1 [Example 1437] ({CH2CO}-Y(Carboxymethyl)Y(Carboxymethyl)D[Phe(3-Me)]L[Bip]V[NMeA][dP]NLVSCA-NH2; thioether N-14)
IC50: 30 nM

Cc1cccc(C[C@@H]2NC(=O)[C@H](CC(=O)O)NC(=O)[C@H](Cc3cccc(C#N)c3)NC(=O)[C@H](Cc3ccncc3)NC(=O)CSC[C@@H](C(=O)N[C@@H](CCN)C(N)=O)NC(=O)[C@H](CO)NC(=O)[C@H](C(C)(C)O)NC(=O)[C@H](CC3CCCCC3)NC(=O)[C@H](CCN)NC(=O)[C@H]3CCCN3C(=O)[C@H](C)N(C)C(=O)[C@H](Cc3ccc(OCC(=O)O)cc3)NC(=O)[C@H](Cc3ccc(-c4ccccc4)cc3)NC(=O)[C@H](Cc3ccc(OCC(=O)O)cc3)NC2=O)c1 [Example 1182] ({CH2CO}-[4Pal][Phe(3-CN)]D[Phe(3-Me)]Y(Carboxymethyl)[Bip]Y(Carboxymethyl)[NMeA][dP][Dab][Cha][Val(3-OH)]SC[Dab]-NH2; thioether N-14)
IC50: 240 nM

CC(C)C[C@@H]1NC(=O)[C@H](CCCNC(=N)N)NC(=O)[C@H](Cc2ccccc2)N(C)C(=O)[C@H](C)N(C)C(=O)[C@H](CCCNC(=N)N)NC(=O)[C@H](Cc2ccc(-c3ccccc3)cc2)NC(=O)[C@H](C(C)C)NC(=O)[C@H](Cc2c[nH]c3ccccc23)NC(=O)[C@H](CC(=O)O)NC(=O)[C@H](Cc2ccc(OCC(=O)O)cc2)NC(=O)[C@H](Cc2ccc(C(=O)O)cc2)NC(=O)CSC[C@@H](C(=O)NCC(N)=O)NC(=O)[C@H](CO)NC(=O)[C@H](C(C)C)NC1=O [Example 1300] ({CH2CO}-[Phe(4-COOH)]Y(Carboxymethyl)DWV[Bip]R[NMeA][NMeF]RLVSCG-NH2; thioether N-14)
IC50: 120 nM

Cc1cccc(C[C@@H]2NC(=O)[C@H](CC(=O)O)NC(=O)[C@H](Cc3ccc(OCC(=O)O)cc3)NC(=O)[C@H](Cc3ccncc3)NC(=O)CSC[C@@H](C(=O)N[C@@H](CCN)C(N)=O)NC(=O)[C@H](CO)NC(=O)[C@H](C(C)(C)O)NC(=O)[C@H](CC3CCCCC3)NC(=O)[C@H](CCN)NC(=O)[C@H]3CCCN3C(=O)[C@H](C)N(C)C(=O)[C@H](CCCNC(N)=O)NC(=O)[C@H](Cc3ccc(-c4ccccc4)cc3)NC(=O)[C@H](Cc3ccc(OCC(=O)O)cc3)NC2=O)c1 [Example 1180] ({CH2CO}-[4Pal]Y(Carboxymethyl)D[Phe(3-Me)]Y(Carboxymethyl)[Bip][Cit][NMeA][dP][Dab][Cha][Val(3-OH)]SC[Dab]-NH2; thioether N-14)
IC50: 20 nM

CC(C)C[C@@H]1NC(=O)[C@H](Cc2c[nH]c3ccccc23)NC(=O)[C@H](CC(=O)O)NC(=O)[C@H](Cc2ccc(OCC(=O)O)cc2)NC(=O)[C@H](CN)NC(=O)CSC[C@@H](C(=O)N[C@@H](C)C(N)=O)NC(=O)[C@H](CO)NC(=O)[C@H](C(C)C)NC(=O)[C@H](CC(C)C)NC(=O)[C@H](CC(N)=O)NC(=O)[C@H]2CCCN2C(=O)[C@H](C)N(C)C(=O)[C@H](C(C)C)NC(=O)[C@H](Cc2ccc(-c3ccccc3)cc2)NC1=O [Example 1386] ({CH2CO}-[Dap]Y(Carboxymethyl)DWL[Bip]V[NMeA][dP]NLVSCA-NH2; thioether N-14)
IC50: 140 nM

CC(C)C[C@@H]1NC(=O)[C@H](Cc2c[nH]c3ccccc23)NC(=O)[C@H](CC(=O)O)NC(=O)[C@H](Cc2ccc(O)cc2)NC(=O)[C@H](Cc2ccccc2)NC(=O)CSC[C@@H](C(=O)NCC(N)=O)NC(=O)[C@H](C(C)O)NC(=O)[C@H](C(C)C)NC(=O)[C@H](CC(C)C)NC(=O)[C@H](CC(N)=O)NC(=O)CN(C)C(=O)[C@H](C)N(C)C(=O)[C@H](C(C)C)NC(=O)[C@H](Cc2ccc(-c3ccccc3)cc2)NC1=O (stereo partly drawn) [Example 1109] ({CH2CO}-FYDWL[Bip]V[NMeA][Sar]NLV[Thr(3ξ)]CG-NH2; thioether N-14)
IC50: 350 nM

CC(C)C[C@@H]1NC(=O)[C@H](CC(N)=O)NC(=O)CN(C)C(=O)[C@H](C)N(C)C(=O)[C@H](C(C)C)NC(=O)[C@H](Cc2ccc(-c3ccccc3)cc2)NC(=O)[C@H](C(C)C)NC(=O)[C@H](Cc2c[nH]c3ccccc23)NC(=O)[C@H](CC(=O)O)NC(=O)[C@H](Cc2ccc(O)cc2)NC(=O)[C@H](Cc2ccccc2)NC(=O)CSC[C@@H](C(=O)N[C@@H](C)C(N)=O)NC(=O)[C@H](CO)NC(=O)[C@H](C(C)C)NC1=O [Example 1149] ({CH2CO}-FYDWV[Bip]V[NMeA][Sar]NLVSCA-NH2; thioether N-14)
IC50: 690 nM

CCCC[C@@H]1NC(=O)[C@H](CCCCN)NC(=O)[C@H](Cc2ccccc2)N(C)C(=O)[C@H](CC(=O)O)NC(=O)[C@H](CCCNC(=N)N)NC(=O)[C@H](Cc2ccc(-c3ccccc3)cc2)NC(=O)[C@H](C(C)C)NC(=O)[C@H](Cc2c[nH]c3ccccc23)NC(=O)[C@H](CC(=O)O)NC(=O)[C@H](Cc2ccc(O)cc2)NC(=O)[C@H](Cc2ccccc2)NC(=O)CSC[C@@H](C(=O)NCC(N)=O)NC(=O)[C@H](CCCNC(=N)N)NC(=O)[C@H](C(C)C)NC1=O [Example 1192] ({CH2CO}-FYDWV[Bip]RD[NMeF]K[Nle]VRCG-NH2; thioether N-14)
IC50: 920 nM

CC(C)C[C@@H]1NC(=O)[C@H](Cc2c[nH]c3ccccc23)NC(=O)[C@H](CC(=O)O)NC(=O)[C@H](Cc2ccc(C(=O)O)cc2)NC(=O)[C@H](Cc2cccnc2)NC(=O)CSC[C@@H](C(=O)N[C@@H](C)C(N)=O)NC(=O)[C@H](CO)NC(=O)[C@H](C(C)C)NC(=O)[C@H](CC(C)C)NC(=O)[C@H](CC(N)=O)NC(=O)[C@H]2CCCN2C(=O)[C@H](C)N(C)C(=O)[C@H](C(C)C)NC(=O)[C@H](Cc2ccc(-c3ccccc3)cc2)NC1=O [Example 1025] ({CH2CO}-[3Pal][Phe(4-COOH)]DWL[Bip]V[NMeA][dP]NLVSCA-NH2; thioether N-14)
IC50: 40 nM

CC(C)C[C@@H]1NC(=O)[C@H](Cc2c[nH]c3ccccc23)NC(=O)[C@H](CC(=O)O)NC(=O)[C@H](Cc2ccc(O)cc2)NC(=O)[C@H](Cc2ccccc2)NC(=O)CSC[C@@H](C(=O)NCC(N)=O)NC(=O)[C@H](CO)NC(=O)[C@H](C(C)C)NC(=O)[C@H](CC(C)C)NC(=O)[C@H](CCN)NC(=O)CN(C)C(=O)[C@H](C)N(C)C(=O)[C@H](C(C)C)NC(=O)[C@H](Cc2ccc(-c3ccccc3)cc2)NC1=O [Example 1069] ({CH2CO}-FYDWL[Bip]V[NMeA][Sar][Dab]LVSCG-NH2; thioether N-14)
IC50: 160 nM
